Source: patent publication US4000196A, “1,1,3-Trisubstituted hydroxyguanidines” (E. I. Du Pont de Nemours and Company, priority 1974, dated 1976)
Blank lines part the entries; values can stand above or below the compound they belong to.

Columns and labels:
[1] = test system: tetrabenazine-induced ptosis in mice; assay: Prevention of tetrabenazine-induced sedation and depression in mice (relief of ptosis); format: in vivo, Carworth CF1 S female mice; details: Mus musculus, 1 h; oral; 5, 25 and 125 mg/kg; tetrabenazine 32 mg/kg i.p. 30 min later; read 30 min after tetrabenazine; groups of 10 female mice; read-out: ptosis ED50, i.e., the dose which blocked ptosis in 50% of the mice
Protocol: This mouse test is predictive of human antidepressant response (Everett, G.M., "The Dopa Response Potentiation Test and Its Use In Screening for Antidepressant Drugs", pp. 164-167 in "Antidepressant Drugs", Proceeding of the First International Symposium, S. Garattini and M. N. G. Dukes, eds., 1967).
Groups of 10 Carworth CF1 S female mice, 18-21 g each, were fasted 1.5 hours and were intubated with a hydroxyguanidine as antagonist to tetrabenazine at oral doses of 5, 25 and 125 mg/kg in 0.20 ml of 1% methyl cellulose (Methocel). Thirty minutes later the mice were challenged with tetrabenazine, 32 mg/kg intraperitoneally (dissolved in 0.20 ml of 0.05M KCl at pH 2.0). One hour after the hydroxyguanidine compound (30 minutes after tetrabenazine) the mice were examined for signs of exploratory activity and ptosis (eye-lid closure). Normal exploratory activity (relief from sedation) was recorded when a mouse lifted by the tail from a group of 10 in a testing box and placed on a stainless steel testing box lid (12.5 inches × 8 inches with 0.33 inch mesh) either turned its head horizontally 30° or moved to the edge of the screen within 10 seconds after being placed on the screen. Relief from ptosis was recorded when exactly 2 seconds after placing the mouse facing the observer, lid closure was less than 50% in both eyes. […]

[2] = Chelation of metal ions in aqueous solutions; format: physicochemical
Protocol: (§1) The 1,1,3-trisubstituted hydroxyguanidines of the invention chelate metal ions in aqueous solutions, and the chelate complexes can then be extracted by a solvent such as 1-butanol. The following is an example.
(§2) Aqueous solutions of cobaltous chloride and cupric acetate were prepared by dissolving 0.5 g in separate 5 ml portions of water. One ml of each solution was mixed with 1 ml of an aqueous methanol solution of 1,3-dimethyl-1-benzyl-2-hydroxyguanidine made by dissolving 0.2 g of the hydroxyguanidine in 5 ml methanol and 5 ml water. The addition was followed by an immediate color change.

[3] = Complex formation with titanium (tetraisopropyl titanate); format: physicochemical; details: methanol solution of tetraisopropyl titanate
[4] = Chelation of cobalt ions (cobaltous chloride) in aqueous solution; format: physicochemical; details: cobaltous chloride in water mixed with aqueous methanol solution of hydroxyguanidine
Protocol: as §1, §2

[5] = Chelation of copper ions (cupric acetate) in aqueous solution; format: physicochemical; details: cupric acetate in water mixed with aqueous methanol solution of hydroxyguanidine
Protocol: as §1, §2

SMILES: CCNC(=NO)N(C)c1ccccc1 [Example 3, 1-Phenyl-1-methyl-3-ethyl-2-hydroxyguanidine]
- ED50 [1]: 2.7 mg/kg

SMILES: CCNC(=NO)N(C)Cc1ccccc1 [Example 5, 1-Benzyl-1-methyl-3-ethyl-2-hydroxyguanidine]
- ED50 [1]: 19 mg/kg

- chelating of metal ions ([2]; aqueous solutions): Chelating also occured
SMILES: CNC(=NO)N(C)c1ccccc1 [Example 2, 1-Phenyl-1,3-dimethyl-2-hydroxyguanidine]

- immediate color change of cobalt solution [4]: from red to pink
- immediate color change of copper solution [5]: from blue to green
SMILES: CNC(=NO)N(C)Cc1ccccc1 [Example 4, 1-Benzyl-1,3-dimethyl-2-hydroxyguanidine]
- complex of titanium with the hydroxyguanidine [3]: a bright yellow complex of titanium with the hydroxyguanidine was formed
- extraction of the metal ion from water into 1-butanol ([2]; cobalt and copper solutions shaken with 2-3 ml of 1-butanol): colored organic layers, indicative of extraction of the metal ion from the water
